Assay results published in ChEMBL document CHEMBL5465560, “Selectivity Literature for EUbOPEN Chemogenomic Library” (2024).

Tests used:
[1] = target: T1, Activin receptor type-1 (Homo sapiens) (UniProt Q04771); conditions: at 10 µM
T1 sequence (whole entry): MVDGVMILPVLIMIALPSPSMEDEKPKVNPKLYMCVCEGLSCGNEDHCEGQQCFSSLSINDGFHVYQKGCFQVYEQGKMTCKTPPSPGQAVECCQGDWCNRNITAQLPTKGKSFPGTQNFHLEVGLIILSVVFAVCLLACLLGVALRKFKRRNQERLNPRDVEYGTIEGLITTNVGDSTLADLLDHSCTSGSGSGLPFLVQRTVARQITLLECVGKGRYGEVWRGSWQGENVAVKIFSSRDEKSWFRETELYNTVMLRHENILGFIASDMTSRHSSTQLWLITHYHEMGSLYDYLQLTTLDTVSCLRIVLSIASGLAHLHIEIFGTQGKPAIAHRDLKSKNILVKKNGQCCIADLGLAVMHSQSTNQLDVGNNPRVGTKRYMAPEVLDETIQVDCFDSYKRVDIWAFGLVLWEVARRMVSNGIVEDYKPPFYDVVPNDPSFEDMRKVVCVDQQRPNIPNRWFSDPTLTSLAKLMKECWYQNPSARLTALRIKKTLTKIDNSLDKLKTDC

[2] = target: Protein arginine N-methyltransferase 6 (Homo sapiens, UniProt Q96LA8); test: Selectivity interaction (Scintillation proximity assays) EUB0000255b PRMT6
[3] = target: T2, Ephrin type-B receptor 1 (Homo sapiens) (UniProt P54762); test: Selectivity interaction (KinomeScan (DiscoverX)) EUB0000655a EPHB1; conditions: at 10 µM
T2 sequence (whole entry): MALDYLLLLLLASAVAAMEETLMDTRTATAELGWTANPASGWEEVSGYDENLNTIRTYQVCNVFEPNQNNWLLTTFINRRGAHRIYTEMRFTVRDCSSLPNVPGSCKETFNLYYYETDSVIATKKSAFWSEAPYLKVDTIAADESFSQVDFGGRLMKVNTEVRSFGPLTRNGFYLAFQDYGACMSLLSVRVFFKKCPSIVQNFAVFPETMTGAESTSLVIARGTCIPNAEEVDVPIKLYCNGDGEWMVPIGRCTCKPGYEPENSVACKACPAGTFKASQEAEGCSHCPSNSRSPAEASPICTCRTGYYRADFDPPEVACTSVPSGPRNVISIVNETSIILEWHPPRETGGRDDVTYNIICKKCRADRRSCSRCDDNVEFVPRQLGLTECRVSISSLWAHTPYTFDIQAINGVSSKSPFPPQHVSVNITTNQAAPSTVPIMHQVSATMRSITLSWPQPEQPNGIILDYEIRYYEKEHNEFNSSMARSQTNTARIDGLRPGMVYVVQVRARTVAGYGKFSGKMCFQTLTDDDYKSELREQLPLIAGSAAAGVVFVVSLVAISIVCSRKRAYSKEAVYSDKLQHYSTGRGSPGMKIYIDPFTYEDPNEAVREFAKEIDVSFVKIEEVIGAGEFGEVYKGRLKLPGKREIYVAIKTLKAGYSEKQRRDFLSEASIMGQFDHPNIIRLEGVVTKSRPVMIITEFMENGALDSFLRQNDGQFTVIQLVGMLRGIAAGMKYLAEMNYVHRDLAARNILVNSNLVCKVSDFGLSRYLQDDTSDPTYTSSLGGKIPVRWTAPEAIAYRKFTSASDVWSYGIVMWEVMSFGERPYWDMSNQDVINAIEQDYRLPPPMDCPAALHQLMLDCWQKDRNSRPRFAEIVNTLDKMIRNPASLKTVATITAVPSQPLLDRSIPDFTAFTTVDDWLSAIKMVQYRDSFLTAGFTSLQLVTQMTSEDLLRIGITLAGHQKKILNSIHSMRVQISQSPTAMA

[4] = target: Cyclin-dependent kinase-like 3 (Homo sapiens) (UniProt Q8IVW4); test: Selectivity interaction (KinomeScan (DiscoverX)) EUB0000655a CDKL3; conditions: at 10 µM
[5] = target: T2, Ephrin type-B receptor 1 (Homo sapiens); test: Selectivity interaction (KinomeScan (DiscoverX)) EUB0000666a EPHB1; conditions: at 10 µM
Insulin receptor = Insulin receptor (Homo sapiens, UniProt P06213); test: Selectivity interaction (Kinase panel (33PanQinase(R) Activity Assay)) EUB0000877a INSR
[6] = target: T3, Aurora kinase C (Homo sapiens) (UniProt Q9UQB9); test: Selectivity interaction (Kinase panel (Z-LYTE Assay)) EUB0001632a AURKC; conditions: at 10 µM
T3 sequence (whole entry): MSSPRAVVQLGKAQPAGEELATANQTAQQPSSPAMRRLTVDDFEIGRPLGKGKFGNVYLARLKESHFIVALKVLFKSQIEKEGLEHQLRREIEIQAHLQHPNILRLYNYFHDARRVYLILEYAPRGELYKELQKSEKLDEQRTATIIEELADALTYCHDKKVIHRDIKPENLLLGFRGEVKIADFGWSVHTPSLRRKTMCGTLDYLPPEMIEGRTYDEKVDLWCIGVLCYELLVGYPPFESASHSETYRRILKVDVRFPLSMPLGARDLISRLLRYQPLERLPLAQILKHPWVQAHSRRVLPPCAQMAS

[7] = target: Ribosomal protein S6 kinase beta-1 (Homo sapiens, UniProt P23443); test: Selectivity interaction (KinomeScan (DiscoverX)) EUB0000607a RPS6KB1; conditions: at 10 µM
[8] = target: Serine/threonine-protein kinase MRCK alpha (Homo sapiens) (UniProt Q5VT25); conditions: at 10 µM
[9] = target: Ribosomal protein S6 kinase alpha-3 (Homo sapiens, UniProt P51812); test: Selectivity interaction (Kinase panel (literature)) EUB0001199aCl RPS6KA3; conditions: at 1 µM
[10] = target: Cyclin-dependent kinase 18 (Homo sapiens) (UniProt Q07002); test: Selectivity interaction (Ambit KINOMEscan and KiNATiv profiling in Jurkat cells) EUB0000090b CDK18; assay type: cell-based; conditions: at 1 µM
[11] = target: Mitogen-activated protein kinase kinase kinase 4 (Homo sapiens) (UniProt Q9Y6R4); test: Selectivity interaction (Ambit KINOMEscan and KiNATiv profiling in Jurkat cells) EUB0000090b MAP3K4; assay type: cell-based; conditions: at 1 µM
[12] = target: T4, Histone-lysine N-methyltransferase SMYD3 (Homo sapiens) (UniProt Q9H7B4); conditions: at 1 µM
T4 sequence (whole entry): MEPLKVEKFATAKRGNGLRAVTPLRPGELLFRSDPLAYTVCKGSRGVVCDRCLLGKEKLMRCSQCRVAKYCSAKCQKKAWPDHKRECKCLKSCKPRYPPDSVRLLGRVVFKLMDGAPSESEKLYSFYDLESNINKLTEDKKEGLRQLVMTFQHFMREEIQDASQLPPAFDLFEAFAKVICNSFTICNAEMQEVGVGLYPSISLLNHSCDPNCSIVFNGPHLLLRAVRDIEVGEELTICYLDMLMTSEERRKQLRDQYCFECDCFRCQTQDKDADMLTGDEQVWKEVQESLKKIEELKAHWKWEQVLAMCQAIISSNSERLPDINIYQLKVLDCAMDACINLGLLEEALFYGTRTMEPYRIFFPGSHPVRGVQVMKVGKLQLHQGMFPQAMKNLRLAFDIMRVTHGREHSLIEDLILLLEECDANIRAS

Ribosomal protein S6 kinase beta-1, sequence (P23443 whole entry, looked up): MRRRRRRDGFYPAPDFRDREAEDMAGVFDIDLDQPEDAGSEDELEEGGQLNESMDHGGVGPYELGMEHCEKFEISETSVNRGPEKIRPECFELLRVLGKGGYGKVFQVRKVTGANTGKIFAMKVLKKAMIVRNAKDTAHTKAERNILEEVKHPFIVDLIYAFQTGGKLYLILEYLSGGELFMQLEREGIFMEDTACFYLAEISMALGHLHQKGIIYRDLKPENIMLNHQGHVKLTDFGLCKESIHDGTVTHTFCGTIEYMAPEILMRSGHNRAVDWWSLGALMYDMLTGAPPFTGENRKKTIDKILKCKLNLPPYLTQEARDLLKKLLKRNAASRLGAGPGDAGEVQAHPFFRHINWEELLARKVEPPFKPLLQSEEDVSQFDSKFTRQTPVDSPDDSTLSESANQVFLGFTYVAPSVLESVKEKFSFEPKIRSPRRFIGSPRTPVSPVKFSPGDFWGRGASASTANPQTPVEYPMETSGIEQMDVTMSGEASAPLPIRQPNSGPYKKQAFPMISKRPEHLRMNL
Protein arginine N-methyltransferase 6, sequence (Q96LA8 whole entry): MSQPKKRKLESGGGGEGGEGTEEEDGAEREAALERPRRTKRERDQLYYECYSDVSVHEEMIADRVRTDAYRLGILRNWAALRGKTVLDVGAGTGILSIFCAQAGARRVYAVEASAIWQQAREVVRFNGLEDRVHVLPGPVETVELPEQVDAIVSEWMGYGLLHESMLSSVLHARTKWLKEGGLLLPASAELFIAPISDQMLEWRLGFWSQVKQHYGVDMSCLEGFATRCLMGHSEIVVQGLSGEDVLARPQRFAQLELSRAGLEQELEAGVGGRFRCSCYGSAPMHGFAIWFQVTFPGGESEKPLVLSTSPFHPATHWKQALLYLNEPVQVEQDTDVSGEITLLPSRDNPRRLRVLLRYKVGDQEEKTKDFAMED
Cyclin-dependent kinase-like 3 (Homo sapiens), sequence (Q8IVW4 whole entry, looked up): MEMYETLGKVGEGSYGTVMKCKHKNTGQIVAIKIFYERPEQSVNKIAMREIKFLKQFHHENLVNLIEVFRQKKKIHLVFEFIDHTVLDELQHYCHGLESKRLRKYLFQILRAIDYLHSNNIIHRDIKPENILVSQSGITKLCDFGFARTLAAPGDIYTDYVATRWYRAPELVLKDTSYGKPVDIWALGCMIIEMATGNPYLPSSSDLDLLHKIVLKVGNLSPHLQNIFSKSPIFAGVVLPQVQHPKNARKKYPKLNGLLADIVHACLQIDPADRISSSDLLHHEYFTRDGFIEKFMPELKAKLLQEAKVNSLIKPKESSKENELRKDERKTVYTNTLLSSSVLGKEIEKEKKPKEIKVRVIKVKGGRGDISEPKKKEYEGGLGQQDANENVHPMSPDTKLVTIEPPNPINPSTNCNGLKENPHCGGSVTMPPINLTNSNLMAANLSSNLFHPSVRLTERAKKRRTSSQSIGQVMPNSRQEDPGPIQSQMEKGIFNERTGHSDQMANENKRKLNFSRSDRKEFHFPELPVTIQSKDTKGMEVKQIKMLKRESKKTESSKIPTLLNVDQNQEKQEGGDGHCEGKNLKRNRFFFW
Ribosomal protein S6 kinase alpha-3, sequence (P51812 whole entry): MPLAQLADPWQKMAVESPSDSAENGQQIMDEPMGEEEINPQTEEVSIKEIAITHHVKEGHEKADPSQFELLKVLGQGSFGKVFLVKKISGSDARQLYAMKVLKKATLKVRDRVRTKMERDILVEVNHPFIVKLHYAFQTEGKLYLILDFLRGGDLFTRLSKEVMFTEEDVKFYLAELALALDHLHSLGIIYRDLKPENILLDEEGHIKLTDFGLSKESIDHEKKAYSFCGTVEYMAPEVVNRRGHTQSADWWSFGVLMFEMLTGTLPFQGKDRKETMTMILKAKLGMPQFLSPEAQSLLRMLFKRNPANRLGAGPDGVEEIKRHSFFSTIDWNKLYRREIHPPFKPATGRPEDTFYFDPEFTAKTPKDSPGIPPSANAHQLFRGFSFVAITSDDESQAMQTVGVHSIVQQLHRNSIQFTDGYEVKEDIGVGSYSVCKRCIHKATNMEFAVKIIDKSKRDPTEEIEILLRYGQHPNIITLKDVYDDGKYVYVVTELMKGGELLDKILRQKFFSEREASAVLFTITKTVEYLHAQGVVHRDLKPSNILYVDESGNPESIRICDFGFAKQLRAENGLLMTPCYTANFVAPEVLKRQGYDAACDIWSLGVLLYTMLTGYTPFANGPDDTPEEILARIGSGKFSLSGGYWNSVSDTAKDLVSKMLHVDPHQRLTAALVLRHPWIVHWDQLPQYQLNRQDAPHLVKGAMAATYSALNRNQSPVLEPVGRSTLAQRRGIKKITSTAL
Cyclin-dependent kinase 18 (Homo sapiens), sequence (Q07002 whole entry): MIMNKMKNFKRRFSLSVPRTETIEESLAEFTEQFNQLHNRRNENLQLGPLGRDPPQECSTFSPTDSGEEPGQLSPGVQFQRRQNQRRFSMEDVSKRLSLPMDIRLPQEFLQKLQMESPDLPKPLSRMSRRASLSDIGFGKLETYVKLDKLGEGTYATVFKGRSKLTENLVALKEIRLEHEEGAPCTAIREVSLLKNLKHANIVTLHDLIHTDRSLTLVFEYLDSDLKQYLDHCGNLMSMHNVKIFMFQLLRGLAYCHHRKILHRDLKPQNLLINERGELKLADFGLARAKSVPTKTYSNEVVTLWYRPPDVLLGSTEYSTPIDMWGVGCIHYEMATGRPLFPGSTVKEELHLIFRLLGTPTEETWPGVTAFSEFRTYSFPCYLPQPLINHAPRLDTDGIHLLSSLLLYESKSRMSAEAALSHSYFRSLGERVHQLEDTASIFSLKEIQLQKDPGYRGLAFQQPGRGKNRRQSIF
Serine/threonine-protein kinase MRCK alpha (Homo sapiens), sequence (Q5VT25 whole entry): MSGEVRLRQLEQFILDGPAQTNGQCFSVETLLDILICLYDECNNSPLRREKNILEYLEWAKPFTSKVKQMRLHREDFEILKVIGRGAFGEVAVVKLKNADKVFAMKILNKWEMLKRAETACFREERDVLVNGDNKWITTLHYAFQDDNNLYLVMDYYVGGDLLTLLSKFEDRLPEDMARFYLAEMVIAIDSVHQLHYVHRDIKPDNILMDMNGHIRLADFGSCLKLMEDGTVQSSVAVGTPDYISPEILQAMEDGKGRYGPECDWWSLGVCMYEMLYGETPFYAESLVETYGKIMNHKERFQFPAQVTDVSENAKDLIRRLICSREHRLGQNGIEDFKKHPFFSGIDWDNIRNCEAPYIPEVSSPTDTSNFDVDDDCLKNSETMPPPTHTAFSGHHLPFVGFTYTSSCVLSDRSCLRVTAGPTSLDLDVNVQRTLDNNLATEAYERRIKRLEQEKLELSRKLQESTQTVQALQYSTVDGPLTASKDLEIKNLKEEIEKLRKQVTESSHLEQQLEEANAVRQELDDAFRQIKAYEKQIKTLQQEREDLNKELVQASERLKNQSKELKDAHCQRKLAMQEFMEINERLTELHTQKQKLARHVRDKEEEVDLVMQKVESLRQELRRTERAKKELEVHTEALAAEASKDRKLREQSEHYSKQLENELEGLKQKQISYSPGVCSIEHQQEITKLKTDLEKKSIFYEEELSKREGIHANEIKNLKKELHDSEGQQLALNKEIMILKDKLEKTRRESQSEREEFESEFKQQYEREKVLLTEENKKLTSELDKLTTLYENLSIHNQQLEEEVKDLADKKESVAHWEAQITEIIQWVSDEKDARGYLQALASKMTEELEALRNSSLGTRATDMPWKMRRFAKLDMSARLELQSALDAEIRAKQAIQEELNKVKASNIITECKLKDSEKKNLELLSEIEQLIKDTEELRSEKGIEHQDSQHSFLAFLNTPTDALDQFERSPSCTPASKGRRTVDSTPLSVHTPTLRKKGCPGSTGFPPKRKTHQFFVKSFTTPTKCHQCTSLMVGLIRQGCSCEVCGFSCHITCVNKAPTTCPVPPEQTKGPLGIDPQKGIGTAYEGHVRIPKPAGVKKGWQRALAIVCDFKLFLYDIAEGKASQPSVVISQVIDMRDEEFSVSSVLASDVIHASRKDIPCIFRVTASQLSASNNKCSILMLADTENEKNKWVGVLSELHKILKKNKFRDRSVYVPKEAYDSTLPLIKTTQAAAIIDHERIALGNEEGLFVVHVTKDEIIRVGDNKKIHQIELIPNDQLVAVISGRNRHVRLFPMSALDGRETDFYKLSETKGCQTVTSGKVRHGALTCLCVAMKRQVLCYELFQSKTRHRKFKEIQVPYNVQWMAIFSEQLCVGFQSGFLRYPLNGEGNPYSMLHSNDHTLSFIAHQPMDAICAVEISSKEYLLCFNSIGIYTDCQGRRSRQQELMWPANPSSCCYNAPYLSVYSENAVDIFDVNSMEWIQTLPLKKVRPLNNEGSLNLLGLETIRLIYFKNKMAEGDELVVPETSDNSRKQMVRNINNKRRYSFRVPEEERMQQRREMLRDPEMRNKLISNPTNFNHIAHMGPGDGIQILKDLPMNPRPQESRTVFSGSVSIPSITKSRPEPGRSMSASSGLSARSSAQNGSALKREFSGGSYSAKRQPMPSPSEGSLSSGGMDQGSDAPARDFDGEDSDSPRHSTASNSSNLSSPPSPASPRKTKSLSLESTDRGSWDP

## CCN(CC)CCCCNc1ncc2cc(-c3cc(OC)cc(OC)c3)c(NC(=O)NC(C)(C)C)nc2n1
[1]
  % of control: 100%

## COCCN1CCC(c2cc(CN(C)C(=O)c3cccc(Oc4ccccc4)c3)ccn2)CC1
[2]
  IC50: > 10 µM

## CN(C)CCOc1ccc(-c2nc(-c3ccncc3)c(-c3ccc4c(c3)CC/C4=N\O)[nH]2)cc1
[3]
  % of control: 100%
[4]
  % of control: 100%

## O=C(NOC[C@H](O)CO)c1ccc(F)c(F)c1Nc1ccc(I)cc1F
[5]
  % of control: 100%

## CCC(=O)N1CC[C@H](Nc2ncnc3c2CN(c2cnc(OC)c(C(F)(F)F)c2)CC3)C1 [LENIOLISIB]
Insulin receptor
  IC50: > 10 µM

## Cn1cc(-n2cnc3c(NCc4nc5cc(Cl)c(Cl)cc5[nH]4)nc(N4CCOCC4)nc32)cn1
[6]
  % of control: 8.76%

## CNC(=O)Nc1ccc(-c2nc(N3CC4CCC(C3)O4)c3cnn(C4CCC5(CC4)OCCO5)c3n2)cc1
[7]
  % of control: 100%

## COCC(=O)NC/C=C/c1ccc2ncnc(Nc3ccc(Oc4ccc(C)nc4)c(C)c3)c2c1 [CP-724714]
[8]
  % of control: 100%

## CN1Cc2nccc(-c3cn(C)nc3-c3ccc(F)cc3)c2C1=O
[9]
  % of inhibition: 0%

## CN(C)C/C=C/C(=O)Nc1ccc(C(=O)N2CCCC(Nc3ncc(Cl)c(-c4c[nH]c5ccccc45)n3)C2)cc1 (stereo not drawn)
[10]
  % of control: 59%
[11]
  % of control: 64%

## CNCCN1CCC(c2cc(CN(C)C(=O)c3cccc(Oc4ccccc4)c3)ccn2)CC1
[12]
  % activity: > 85%
